Results from patent publication EP4737450A1 (Longwood Pharmaceuticals (Hangzhou) Co., Ltd, priority 2023, dated 2025).

How the values were obtained:
[1] = molecular target: FXIa (Homo sapiens, UniProt P03951); assay: Inhibitory activity against FXIa in vitro (biochemical assay); conditions: values given in µM
Summary of the method: (§1)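 Compounds were dispensed acoustically from DMSO and tested in duplicate. IC50 values came from nonlinear regression curve fitting.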

[2] = molecular target: T1, plasma kallikrein (PKa) (Homo sapiens, UniProt P03952); assay: PKa inhibition in kaolin-activated human platelet-poor plasma (PPP); format: biochemical; conditions: Pro-Phe-Arg-AMC substrate, fluorescence signal
T1 construct: purchased R & D 2497-SE
Protocol: Test Example 2. Evaluation of the compounds of the present invention in terms of PKa Inhibition in Kaolin-Activated Human PPP: Platelet-poor plasma (PPP) obtained from human whole blood, anticoagulated with Na - Citrate, was incubated with various concentrations of the test compounds and 25, 75, 250, or 750 µg/mL kaolin in assay buffer for 20 minutes at 37°C, so that a concentration response of the test compounds was obtained with respect to various kaolin concentrations. The positive drug was diluted in accordance with the reference concentration and diluted 3-fold with the diluent as the first point.
50 nL of compounds were then transferred to a 384 assay plate containing 2 replicates per well. The 384 assay plate was centrifuged at 1000 rpm/min. 2.5 µL of human plasma working solution was added to each assay well. The 384 assay plate was centrifuged at 1000 RPM. 2.5 µL of kaolin working solution was added to each assay well. The 384 assay plate was centrifuged at 1000 RPM and incubated at 25°C for 20 minutes. 5 µL of Pro-Phe-Arg-AMC working solution was added to each assay well. The 384 assay plate was centrifuged at 1000 RPM and incubated at 25°C for 60 minutes. BMG reads the fluorescence signal.
The percent inhibition of the compound was calculated according to the following formula: [formula]

[3] = molecular target: KLK1 (Homo sapiens, UniProt P06870); assay: Inhibitory activity against KLK1 in vitro (biochemical assay)
Summary of the method: as §1

[4] = molecular target: T1, plasma kallikrein (PKa); assay: Inhibitory activity against plasma kallikrein in vitro (fluorescence intensity enzyme assay, Pro-Phe-Arg-AMC substrate); format: biochemical; conditions: Pro-Phe-Arg-AMC substrate
Summary of the method: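 Fluorescence intensity enzyme assay with 10 nM enzyme and 60 µM Pro-Phe-Arg-AMC (final concentrations). Compounds in DMSO, tested in duplicate over a dose series. IC50 from nonlinear regression curve fitting.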

[5] = plasma kallikrein enzyme assay, read-out: PKa IC50
[6] = PKa IC50, plasma kallikrein enzyme assay

Sequence of FXIa (P03951 388-625 limits assumed): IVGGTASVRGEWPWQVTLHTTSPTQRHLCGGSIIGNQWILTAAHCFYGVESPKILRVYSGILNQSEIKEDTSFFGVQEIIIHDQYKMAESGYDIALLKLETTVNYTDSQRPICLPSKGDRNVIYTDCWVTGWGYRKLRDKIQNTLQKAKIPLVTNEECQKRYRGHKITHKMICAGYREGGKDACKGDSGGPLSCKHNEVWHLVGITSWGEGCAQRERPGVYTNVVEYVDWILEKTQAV
Sequence of FXIa (P03951 19-387 partner limits assumed): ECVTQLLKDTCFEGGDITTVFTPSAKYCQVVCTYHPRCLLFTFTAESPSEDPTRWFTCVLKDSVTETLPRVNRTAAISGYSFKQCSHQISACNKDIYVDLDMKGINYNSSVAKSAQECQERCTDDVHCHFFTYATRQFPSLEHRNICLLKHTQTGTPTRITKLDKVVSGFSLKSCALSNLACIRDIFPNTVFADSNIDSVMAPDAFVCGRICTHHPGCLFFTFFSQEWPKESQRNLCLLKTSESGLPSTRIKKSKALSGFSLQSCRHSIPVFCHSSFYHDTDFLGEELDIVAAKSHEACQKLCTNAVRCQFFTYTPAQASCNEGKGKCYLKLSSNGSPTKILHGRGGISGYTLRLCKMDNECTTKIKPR
Sequence of KLK1 (P06870 25-262, species assumed): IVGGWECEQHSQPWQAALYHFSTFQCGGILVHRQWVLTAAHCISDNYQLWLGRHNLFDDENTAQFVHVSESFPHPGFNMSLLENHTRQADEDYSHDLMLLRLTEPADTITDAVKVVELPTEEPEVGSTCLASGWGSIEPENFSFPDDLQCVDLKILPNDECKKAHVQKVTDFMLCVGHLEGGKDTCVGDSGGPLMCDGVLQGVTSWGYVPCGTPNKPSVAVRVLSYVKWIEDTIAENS
T1 sequence (P03952 391-638 limits assumed): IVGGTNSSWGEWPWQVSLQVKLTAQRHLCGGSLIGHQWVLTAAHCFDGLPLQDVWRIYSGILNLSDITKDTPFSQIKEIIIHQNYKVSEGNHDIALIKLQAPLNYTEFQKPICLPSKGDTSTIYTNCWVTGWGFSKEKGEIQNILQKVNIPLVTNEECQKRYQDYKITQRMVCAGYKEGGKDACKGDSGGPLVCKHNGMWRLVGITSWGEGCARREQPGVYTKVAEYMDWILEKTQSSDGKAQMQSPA
T1 sequence (P03952 20-390 partner limits assumed): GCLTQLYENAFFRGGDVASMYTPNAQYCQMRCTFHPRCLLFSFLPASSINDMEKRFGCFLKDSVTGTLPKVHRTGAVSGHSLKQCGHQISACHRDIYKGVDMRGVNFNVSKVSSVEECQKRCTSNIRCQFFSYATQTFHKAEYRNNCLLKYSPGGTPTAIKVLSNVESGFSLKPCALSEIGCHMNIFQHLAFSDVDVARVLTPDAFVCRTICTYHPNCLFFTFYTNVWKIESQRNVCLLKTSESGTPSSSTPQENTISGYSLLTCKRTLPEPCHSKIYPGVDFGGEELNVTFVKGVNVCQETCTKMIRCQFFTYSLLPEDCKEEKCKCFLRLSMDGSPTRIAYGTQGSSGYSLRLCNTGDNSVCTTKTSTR

N=C(N)c1ccc(CNC(=O)c2coc(Cc3cn4cc(C5CC5)ccc4n3)n2)cc1 [Compound 37]
IC50 [1]: > 10 µM
IC50 [2]: 6.7 nM
IC50 ([3]; values given in µM): > 10 µM
IC50 [4, 5]: 0.16 nM

N=C(N)c1ccc(CNC(=O)c2cnn(Cc3ccc(CC4CC4)cc3)c2C(F)(F)F)cc1 [Compound 109]
IC50 [1]: > 10 µM
IC50 [2]: 8.38 nM
IC50 ([3]; values given in µM): > 10 µM
IC50 [4, 5]: 0.35 nM

Cc1cc(N)nc(C)c1CNC(=O)c1coc(Cc2cn3cc(C4CC4)ccc3n2)n1 [Compound 19]
IC50 [1]: > 10 µM
IC50 [2]: 23.5 nM
IC50 ([3]; values given in µM): > 10 µM
IC50 [4, 5]: 0.633 nM

N=C(N)c1ccc(CNC(=O)c2cnn(Cc3ccc(CC4CC4)cc3)c2)cn1 [Compound 242]
IC50 [1]: > 10 µM
IC50 [2]: 40.7 nM
IC50 ([3]; values given in µM): > 10 µM
IC50 [4, 5]: 2.27 nM

Cc1cc(N)nc(C)c1CNC(=O)c1cnc(Cc2cn3cc(C4CC4)ccc3n2)o1 [Compound 18]
IC50 [1]: > 10 µM
IC50 [2]: 7.92 nM
IC50 ([3]; values given in µM): > 10 µM
IC50 [4, 5]: 0.408 nM

Nc1noc2ccc(CNC(=O)c3cnn(Cc4ccc(Cn5ccccc5=O)cc4)c3)cc12 [Compound 214]
IC50 [1]: > 10 µM
IC50 [2]: 14.9 nM
IC50 ([3]; values given in µM): > 10 µM
IC50 [4, 5]: 0.16 nM

N#Cc1cccc([C@@H](NCC2CC2)c2ccc(F)c(NC(=O)c3cc(C(F)(F)F)nn3-c3cccc(CN)c3)c2)c1 [Berotralstat, reference compound]
IC50 [1]: > 10 µM
IC50 [2]: 56.3 nM
IC50 ([3]; values given in µM): > 10 µM
IC50 [4, 5]: 2.21 nM

N=C(N)c1ccc(CNC(=O)c2cnn(Cc3ccc(Oc4ccccc4)cc3)c2)cc1 [Compound 128]
IC50 [1]: > 10 µM
IC50 [2]: 13.2 nM
IC50 ([3]; values given in µM): > 10 µM
IC50 [4, 6]: 0.56 nM

N#Cc1cc(N2CC3C(C2)C3(F)F)ccc1Cn1cc(C(=O)NCc2ccc(C(=N)N)cc2)cn1 (centres unmarked) [Compound 40]
IC50 [2]: 2.15 nM
IC50 [4, 5]: < 0.05 nM

COCc1nn(Cc2ccc(Cn3ccccc3=O)cc2)cc1C(=O)NCc1c(C)cc(N)nc1C [Compound 2, N-((6-amino-2,4-dimethylpyridin-3-yl)methyl)-3-(methoxymethyl)-1-(4-((2-oxopyridin-1(2H)-yl)methyl)benzyl)-1H-pyrazole-4-carboxamide]
IC50 [1]: > 10 µM
IC50 [2]: 6.8 nM
IC50 ([3]; values given in µM): > 10 µM
IC50 [4, 5]: 0.517 nM

Cc1cc(N)nc(C)c1CNC(=O)c1ncn(Cc2cc(Cl)c(Cn3ccccc3=O)cc2Cl)n1 [Compound 80]
IC50 [1]: > 10 µM
IC50 ([3]; values given in µM): > 10 µM
IC50 [4, 5]: 0.096 nM

N=C(N)c1ccc(CNC(=O)c2cnn(Cc3cc(F)c(OC4CC4)c(F)c3)c2)cc1 [Compound 365]
IC50 [1]: > 10 µM
IC50 ([3]; values given in µM): > 10 µM
IC50 [4, 5]: 1.87 nM

Cc1cc(Cn2cc(C(=O)NCc3ccc(C(=N)N)cc3)cn2)cc(C)c1CC1CC1 [Compound 381]
IC50 [1]: > 10 µM
IC50 ([3]; values given in µM): > 10 µM
IC50 [4, 5]: 0.03 nM

CN(C)c1ccnc(CNC(=O)c2cn(Cc3ccc(Cn4ccccc4=O)cc3)nc2C2COC2)c1F [Compound 335]
IC50 [1]: > 10 µM
IC50 ([3]; values given in µM): > 10 µM
IC50 [4, 5]: 1.92 nM

Cc1cc(C)n(Cc2ccc(Cn3cc(C(=O)NCc4ccc(C(=N)N)cc4F)cn3)cc2)n1 [Compound 355]
IC50 [1]: > 10 µM
IC50 ([3]; values given in µM): > 10 µM
IC50 [4, 5]: 0.12 nM

COCc1nn(Cc2ccc(N3CC4C(C3)C4(F)F)cc2C#N)cc1C(=O)NCc1cc2cnccc2[nH]1 (centres unmarked) [Compound 157, N-((1H-pyrrolo[3,2-c]pyridin-2-yl)methyl)-1-(2-cyano-4-(6,6-difluoro-3-azabicyclo[3.1.0]hexan-3-yl)benzyl)-3-(methoxymethyl)-1H-pyrazole-4-carboxamide]
IC50 [1]: > 10 µM
IC50 ([3]; values given in µM): > 10 µM
IC50 [4, 5]: 1.89 nM

Cc1cc2nccn2c(C)c1CNC(=O)c1nc(Cc2ccc(Cn3ccccc3=O)cc2)ns1 [Compound 137]
IC50 [1]: > 10 µM
IC50 ([3]; values given in µM): > 10 µM
IC50 [4, 5]: 0.9 nM

N=C(N)c1ccc(CNC(=O)c2cnn(Cc3ccc(CC4CC4)c(F)c3)c2)cc1 [Compound 262]
IC50 [1]: > 10 µM
IC50 ([3]; values given in µM): > 10 µM
IC50 [4, 5]: 2.67 nM

N=C(N)c1ccc(CNC(=O)c2cnn(Cc3c(F)cc(N4CC5C(C4)C5(F)F)cc3F)c2)cc1 (centres unmarked) [Compound 368]
IC50 [1]: > 10 µM
IC50 ([3]; values given in µM): > 10 µM
IC50 [4, 5]: 0.19 nM

Nc1ccnc(CNC(=O)c2cn(Cc3ccc(Cn4ccccc4=O)cc3)nc2C2COC2)c1F [Compound 274]
IC50 [1]: > 10 µM
IC50 ([3]; values given in µM): > 10 µM
IC50 [4, 5]: 0.6 nM

COCc1nn(Cc2ccc(Cn3ccccc3=O)cc2)cc1C(=O)NCc1ncc2cc[nH]c2c1F [Compound 364]
IC50 [1]: > 10 µM
IC50 ([3]; values given in µM): > 10 µM
IC50 [4, 5]: 2.06 nM

Cc1cc(N)nc(C)c1CNC(=O)c1cn(Cc2ccc(Cn3ccccc3=O)cc2)nc1C(F)(F)F [Compound 116]
IC50 [1]: > 10 µM
IC50 ([3]; values given in µM): > 10 µM
IC50 [4, 5]: 0.07 nM

Cc1cc(N)nc(C)c1CNC(=O)c1cn(Cc2ccc(CN3CCOCC3=O)cc2)nc1C(F)F [Compound 64]
IC50 [1]: > 10 µM
IC50 ([3]; values given in µM): > 10 µM
IC50 [4, 5]: 2.99 nM

N=C(N)c1ccc(CNC(=O)c2cnn(Cc3ccc(Cn4ccccc4=O)cc3)c2)cn1 [Compound 353]
IC50 [1]: > 10 µM
IC50 ([3]; values given in µM): > 10 µM
IC50 [4, 5]: 0.79 nM

COc1ccnc(CNC(=O)c2cn(Cc3ccc(Cn4ccccc4=O)cc3)nc2C2C(C)(C)C2(F)F)c1F (centres unmarked) [Compound 263]
IC50 [1]: > 10 µM
IC50 ([3]; values given in µM): > 10 µM
IC50 [4, 5]: 0.59 nM

Cc1cc(N)nc(C)c1CNC(=O)c1cn(Cc2ccc(Cn3ccccc3=O)cc2)nc1C(F)F [Compound 69, N-((6-amino-2,4-dimethylpyridin-3-yl)methyl)-3-(difluoromethyl)-1-(4-(2-oxopyridin-1(2H)-yl)methylbenzyl)-1H-pyrazole-4-carboxamide]
IC50 [1]: > 10 µM
IC50 ([3]; values given in µM): > 10 µM
IC50 [4, 5]: 0.076 nM

Cc1cc(N)nc(C)c1CNC(=O)c1cc(Cc2ccc(Cn3ccccc3=O)cc2)ccn1 [Compound 13]
IC50 [1]: > 10 µM
IC50 ([3]; values given in µM): > 10 µM
IC50 [4, 6]: 0.516 nM

COc1ccc(F)c(CNC(=O)c2cn(Cc3ccc(Cn4ccccc4=O)cc3)nc2CO[C@H]2CCN(C)C2)c1F [Compound 225]
IC50 [1]: > 10 µM
IC50 ([3]; values given in µM): > 10 µM
IC50 [4, 5]: 2.86 nM

COCc1nn(Cc2c(F)c(F)c(Cn3ccccc3=O)c(F)c2F)cc1C(=O)NCc1c(C)cc(N)nc1C [Compound 28]
IC50 [1]: > 10 µM
IC50 ([3]; values in nM): > 0.5 µM
IC50 [4, 5]: 2.33 nM

COCc1nn(Cc2ccc(Cn3ccccc3=O)cc2)cc1C(=O)NCc1ncc2ccn(C)c2c1F [Compound 363]
IC50 [1]: > 10 µM
IC50 ([3]; values given in µM): > 10 µM
IC50 [4, 5]: 2.14 nM

Cc1cc(N)nc(C)c1CNC(=O)c1ncn(Cc2cc(Cn3ccccc3=O)cs2)n1 [Compound 73]
IC50 [1]: > 10 µM
IC50 ([3]; values given in µM): > 10 µM
IC50 [4, 5]: 3.07 nM

Cc1cc(C)n(Cc2ccc(Cn3cc(C(=O)NCc4ccc(C(=N)N)cc4)cn3)cc2)n1 [Compound 366]
IC50 [1]: > 10 µM
IC50 ([3]; values given in µM): > 10 µM
IC50 [4, 5]: 0.07 nM

COCc1nn(Cc2ccc(Cn3ccccc3=O)cc2)cc1C(=O)NCc1ncc2c(c1F)OCC2 [Compound 396]
IC50 [1]: > 10 µM
IC50 ([3]; values given in µM): > 10 µM
IC50 [4, 5]: 2.1 nM

COCc1nn(Cc2ccc(Cn3ccccc3=O)cc2)cc1C(=O)NCc1ncc2c(c1F)N(C)CC2 [Compound 391]
IC50 [1]: > 10 µM
IC50 ([3]; values given in µM): > 10 µM
IC50 [4, 5]: 1.4 nM
